Reference: ChEMBL document CHEMBL1140165, “Rotationally constrained 2,4-diamino-5,6-disubstituted pyrimidines: a new class of histamine H4 receptor antagonists with improved druglikeness and in vivo efficacy in pain and inflammation models” (J Med Chem, 2008)
Active and inactive are the calls of the source. No cut-off for these calls is given here.

Tests used:
Histamine H4 receptor [1] = target: T1, Histamine H4 receptor (Rattus norvegicus, UniProt Q91ZY1); experiment: Antagonist activity at rat histamine H4 receptor expressed in HEK293 cells assessed as inhibition of histamine-induced intracellular calcium elevation by FLIPR assay; format: functional, cell-based
Histamine H4 receptor [2] = target: T2, Histamine H4 receptor (Mus musculus, UniProt Q91ZY2); experiment: Antagonist activity at mouse histamine H4 receptor expressed in HEK293 cells assessed as inhibition of histamine-induced intracellular calcium elevation by FLIPR assay; format: functional, cell-based
T2 sequence (Q91ZY2 whole entry): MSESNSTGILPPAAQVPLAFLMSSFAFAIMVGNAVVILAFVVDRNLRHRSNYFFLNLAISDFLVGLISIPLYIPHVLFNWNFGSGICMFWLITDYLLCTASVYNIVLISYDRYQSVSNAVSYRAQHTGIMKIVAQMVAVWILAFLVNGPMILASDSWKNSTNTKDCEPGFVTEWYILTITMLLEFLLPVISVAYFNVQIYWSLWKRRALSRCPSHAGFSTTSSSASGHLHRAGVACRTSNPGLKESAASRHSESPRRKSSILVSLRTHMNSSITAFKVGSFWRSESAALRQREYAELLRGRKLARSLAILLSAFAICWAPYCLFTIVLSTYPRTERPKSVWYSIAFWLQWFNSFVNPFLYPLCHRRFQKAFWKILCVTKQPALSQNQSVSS

Histamine H4 receptor [3] = target: T1, Histamine H4 receptor; experiment: Displacement of [3H]histamine from rat histamine H4 receptor expressed in HEK293 cells; format: cell-based
BMMC = experiment: Blockade of histamine-induced morphological changes in BALB/c mouse BMMC by flow cytometry; format: functional, cell-based
[4] = target: Prostaglandin G/H synthase 1 (Homo sapiens) (UniProt P23219); experiment: Binding affinity at COX1
[5] = target: T3, Prostaglandin G/H synthase 2 (Homo sapiens) (UniProt P35354); experiment: Binding affinity at COX2
T3 sequence (whole entry): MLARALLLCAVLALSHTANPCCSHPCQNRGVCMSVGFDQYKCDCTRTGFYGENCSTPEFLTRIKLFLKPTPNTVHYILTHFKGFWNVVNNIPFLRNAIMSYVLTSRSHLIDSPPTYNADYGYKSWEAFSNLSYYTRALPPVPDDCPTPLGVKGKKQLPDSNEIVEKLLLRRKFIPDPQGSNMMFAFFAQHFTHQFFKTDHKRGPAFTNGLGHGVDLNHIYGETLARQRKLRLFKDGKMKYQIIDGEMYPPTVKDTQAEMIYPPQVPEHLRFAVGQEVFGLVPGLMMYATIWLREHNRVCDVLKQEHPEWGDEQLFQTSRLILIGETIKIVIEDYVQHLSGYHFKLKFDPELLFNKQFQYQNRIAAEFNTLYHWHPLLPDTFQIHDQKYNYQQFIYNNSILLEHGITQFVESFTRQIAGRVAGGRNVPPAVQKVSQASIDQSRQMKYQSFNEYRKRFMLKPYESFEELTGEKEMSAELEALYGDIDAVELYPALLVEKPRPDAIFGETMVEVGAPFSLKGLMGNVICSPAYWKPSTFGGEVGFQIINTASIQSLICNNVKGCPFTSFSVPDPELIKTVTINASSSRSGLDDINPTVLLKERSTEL

[6] = target: Mu-type opioid receptor (Homo sapiens) (UniProt P35372); experiment: Binding affinity to mu opioid receptor
[7] = target: Kappa-type opioid receptor (Homo sapiens) (UniProt P41145); experiment: Binding affinity to kappa opioid receptor
[8] = target: Delta-type opioid receptor (Homo sapiens) (UniProt P41143); experiment: Binding affinity to delta opioid receptor
[9] = target: Cannabinoid receptor 1 (Homo sapiens) (UniProt P21554); experiment: Binding affinity to CB1 receptor
[10] = target: Cannabinoid receptor 2 (Homo sapiens) (UniProt P34972); experiment: Binding affinity to CB2 receptor
Liver microsomes [11] = experiment: Metabolic stability in rat liver microsomes; format: ADME, Microsome
Liver microsomes [12] = experiment: Metabolic stability in human liver microsomes; format: ADME, Microsome
[13] = Metabolic stability in mouse liver microsomes; format: ADME, Microsome
[14] = Protein binding in rat; format: ADME, organism-based; conditions: in vivo, read-out: PB (converted)
[15] = Protein binding in human; format: ADME, organism-based; conditions: in vivo, read-out: PB (converted)
Cytochrome P450 3A4 = Cytochrome P450 3A4 (Homo sapiens, UniProt P08684); experiment: Inhibition of CYP3A4 upto 10 uM; format: ADME
Cytochrome P450 2D6 = Cytochrome P450 2D6 (Homo sapiens, UniProt P10635); experiment: Inhibition of CYP2D6 upto 10 uM; format: ADME
Cytochrome P450 2C9 = Cytochrome P450 2C9 (Homo sapiens, UniProt P11712); experiment: Inhibition of CYP2C9 upto 10 uM; format: ADME
[16] = Half life in rat at 10 mg/kg, iv; format: ADME, organism-based; set-up: dose 10 mg/kg, route intravenous; conditions: in vivo
[17] = Blood clearance in rat at 10 mg/kg, iv; format: ADME, organism-based; set-up: dose 10 mg/kg, route intravenous; conditions: whole blood
[18] = Terminal volume of distribution in rat at 10 mg/kg, iv; format: ADME, organism-based; set-up: dose 10 mg/kg, route intravenous; conditions: in vivo, read-out: Vbeta
[19] = Fractional bioavailability in rat at 10 mg/kg, iv and 10 mg/kg, po; format: ADME, organism-based; conditions: in vivo
[20] = Half life in mouse at 5 mg/kg, iv; format: ADME, organism-based; set-up: dose 5 mg/kg, route intravenous; conditions: in vivo
Mus musculus [21] = experiment: Blood clearance in mouse at 5 mg/kg, iv; format: ADME, organism-based; set-up: dose 5 mg/kg, route intravenous; conditions: in vivo
[22] = Terminal volume of distribution in mouse at 5 mg/kg, iv; format: ADME, organism-based; set-up: dose 5 mg/kg, route intravenous; conditions: in vivo, read-out: Vbeta
[23] = Fractional bioavailability in rat at 5 mg/kg, iv and 5 mg/kg, po; format: ADME, organism-based; conditions: in vivo
[24] = Ratio of drug level in brain to plasma in rat at 10 mg/kg, iv after 30 mins; format: ADME, organism-based; set-up: dose 10 mg/kg, route intravenous
Mus musculus [25] = experiment: Antiinflammatory activity against ip dosed BALB/c mouse assessed as inhibition of zymosan-induced peritonitis after 2 hrs pretreated 30 mins before zymosan challenge; format: functional
Mus musculus [26] = experiment: Inhibition of clobenpropit-induced itching in ip dosed CD1/ICR mouse assessed as blockade of scratching in hind paw for 25 mins pretreated 30 mins before clobenpropit challenge; format: functional
Rattus norvegicus [27] = experiment: Antinociceptive efficacy in ip dosed rat assessed as inhibition of carrageenan-induced inflammatory pain in paw after 30 mins by hotbox assay; format: functional; conditions: 0.5 h
Rattus norvegicus [28] = experiment: Antinociceptive efficacy in rat assessed as inhibition of carrageenan-induced inflammatory pain in paw at 100 umol/kg, ip after 30 mins by hotbox assay relative to control; format: functional
Rattus norvegicus [29] = experiment: Antinociceptive efficacy in spinal nerve ligated Sprague-Dawley rat assessed as reduction of neuropathic pain in left side paw at 100 umol/kg, ip administered 30 mins before testing relative to control; format: functional
Histamine H4 receptor [30] = target: T4, Histamine H4 receptor (Homo sapiens, UniProt Q9H3N8); conditions: HEK293
Histamine H4 receptor [31] = target: T4, Histamine H4 receptor; experiment: Displacement of [3H]histamine from human histamine H4 receptor expressed in HEK293 cells; format: cell-based; conditions: read-out: pKi (converted)
[32] = Cmax in mouse at 5 mg/kg, iv; format: ADME, organism-based; set-up: dose 5 mg/kg, route intravenous; conditions: in vivo
[33] = Tmax in mouse at 5 mg/kg, iv; format: ADME, organism-based; set-up: dose 5 mg/kg, route intravenous; conditions: in vivo
[34] = AUC (0 to t) in mouse at 5 mg/kg, iv; format: ADME, organism-based; set-up: dose 5 mg/kg, route intravenous; conditions: plasma
[35] = AUC (0 to infinity) in mouse at 5 mg/kg, iv; format: ADME, organism-based; set-up: time infinity, dose 5 mg/kg, route intravenous; conditions: plasma
Mus musculus [36] = experiment: (§1) Plasma clearance in mouse at 5 mg/kg, iv; format: ADME, organism-based; set-up: dose 5 mg/kg, route intravenous; conditions: in vivo
[37] = Cmax in mouse at 20 mg/kg, sc; format: ADME, organism-based; set-up: dose 20 mg/kg, route subcutaneous; conditions: in vivo
[38] = Tmax in mouse at 20 mg/kg, sc; format: ADME, organism-based; set-up: dose 20 mg/kg, route subcutaneous; conditions: in vivo
[39] = Half life in mouse at 20 mg/kg, sc; format: ADME, organism-based; set-up: dose 20 mg/kg, route subcutaneous; conditions: in vivo
[40] = AUC (0 to t) in mouse at 20 mg/kg, sc; format: ADME, organism-based; set-up: dose 20 mg/kg, route subcutaneous; conditions: plasma
[41] = AUC (0 to infinity) in mouse at 20 mg/kg, sc; format: ADME, organism-based; set-up: time infinity, dose 20 mg/kg, route subcutaneous; conditions: plasma
[42] = Oral bioavailability in mouse at 20 mg/kg, sc; format: ADME, organism-based; conditions: in vivo, subcutaneous
[43] = as §1; format: ADME, organism-based; set-up: dose 5 mg/kg, route intravenous; conditions: plasma
Rattus norvegicus [44] = experiment: Antinociceptive efficacy in ip dosed spinal nerve ligated Sprague-Dawley rat assessed as reduction of neuropathic pain in paw; format: functional

Sequence of Cytochrome P450 2C9 (P11712 whole entry): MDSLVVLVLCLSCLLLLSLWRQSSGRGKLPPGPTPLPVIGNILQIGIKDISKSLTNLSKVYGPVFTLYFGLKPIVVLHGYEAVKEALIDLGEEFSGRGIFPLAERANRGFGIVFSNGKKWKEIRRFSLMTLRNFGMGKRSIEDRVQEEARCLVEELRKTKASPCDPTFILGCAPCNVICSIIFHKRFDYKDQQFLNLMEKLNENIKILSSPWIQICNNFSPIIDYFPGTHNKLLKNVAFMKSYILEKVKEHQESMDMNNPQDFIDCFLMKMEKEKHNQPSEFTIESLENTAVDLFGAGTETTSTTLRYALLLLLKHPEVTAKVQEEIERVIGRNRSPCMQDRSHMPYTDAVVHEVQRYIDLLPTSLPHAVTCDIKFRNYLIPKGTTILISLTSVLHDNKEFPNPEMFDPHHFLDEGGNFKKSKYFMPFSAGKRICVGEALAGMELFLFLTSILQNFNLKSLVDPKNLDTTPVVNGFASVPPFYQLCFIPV
Sequence of Cytochrome P450 2D6 (P10635 whole entry): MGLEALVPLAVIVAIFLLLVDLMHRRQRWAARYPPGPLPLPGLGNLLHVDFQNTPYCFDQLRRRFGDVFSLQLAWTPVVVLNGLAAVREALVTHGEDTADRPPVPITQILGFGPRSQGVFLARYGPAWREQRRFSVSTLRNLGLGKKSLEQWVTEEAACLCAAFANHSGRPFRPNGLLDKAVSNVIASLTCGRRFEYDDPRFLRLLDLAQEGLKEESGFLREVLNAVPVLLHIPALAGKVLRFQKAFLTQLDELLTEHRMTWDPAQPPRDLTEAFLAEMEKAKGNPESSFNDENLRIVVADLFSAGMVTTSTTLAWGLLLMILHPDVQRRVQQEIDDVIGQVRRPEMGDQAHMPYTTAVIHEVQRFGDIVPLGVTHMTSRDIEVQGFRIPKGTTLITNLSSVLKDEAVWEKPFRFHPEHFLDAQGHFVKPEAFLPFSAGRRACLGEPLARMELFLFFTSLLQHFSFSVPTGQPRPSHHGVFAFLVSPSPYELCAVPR
T4 sequence (Q9H3N8 whole entry): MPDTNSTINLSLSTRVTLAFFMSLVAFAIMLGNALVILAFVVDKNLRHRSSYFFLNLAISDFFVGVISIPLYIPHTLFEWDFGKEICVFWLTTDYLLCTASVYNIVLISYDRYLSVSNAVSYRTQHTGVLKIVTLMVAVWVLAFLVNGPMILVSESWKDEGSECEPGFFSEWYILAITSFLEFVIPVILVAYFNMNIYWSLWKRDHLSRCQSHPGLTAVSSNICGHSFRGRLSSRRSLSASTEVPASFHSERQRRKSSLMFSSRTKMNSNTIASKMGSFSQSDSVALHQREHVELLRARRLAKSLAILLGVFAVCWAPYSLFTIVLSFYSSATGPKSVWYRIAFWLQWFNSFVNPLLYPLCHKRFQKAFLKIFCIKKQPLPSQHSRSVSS
Sequence of Cytochrome P450 3A4 (P08684 whole entry): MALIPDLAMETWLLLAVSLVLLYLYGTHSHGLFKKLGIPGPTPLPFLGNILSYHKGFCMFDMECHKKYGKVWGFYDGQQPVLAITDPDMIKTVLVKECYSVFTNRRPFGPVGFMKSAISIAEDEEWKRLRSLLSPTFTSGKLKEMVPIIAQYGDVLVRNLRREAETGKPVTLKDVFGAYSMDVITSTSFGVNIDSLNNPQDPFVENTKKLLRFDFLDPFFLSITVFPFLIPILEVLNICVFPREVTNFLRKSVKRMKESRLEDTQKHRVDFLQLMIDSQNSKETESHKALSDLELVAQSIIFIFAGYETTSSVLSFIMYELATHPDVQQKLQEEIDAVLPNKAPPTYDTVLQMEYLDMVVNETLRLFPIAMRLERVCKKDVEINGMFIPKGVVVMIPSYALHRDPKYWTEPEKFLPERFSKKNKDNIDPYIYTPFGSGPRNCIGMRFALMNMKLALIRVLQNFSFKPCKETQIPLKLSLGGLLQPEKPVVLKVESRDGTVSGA
T1 sequence (Q91ZY1 whole entry): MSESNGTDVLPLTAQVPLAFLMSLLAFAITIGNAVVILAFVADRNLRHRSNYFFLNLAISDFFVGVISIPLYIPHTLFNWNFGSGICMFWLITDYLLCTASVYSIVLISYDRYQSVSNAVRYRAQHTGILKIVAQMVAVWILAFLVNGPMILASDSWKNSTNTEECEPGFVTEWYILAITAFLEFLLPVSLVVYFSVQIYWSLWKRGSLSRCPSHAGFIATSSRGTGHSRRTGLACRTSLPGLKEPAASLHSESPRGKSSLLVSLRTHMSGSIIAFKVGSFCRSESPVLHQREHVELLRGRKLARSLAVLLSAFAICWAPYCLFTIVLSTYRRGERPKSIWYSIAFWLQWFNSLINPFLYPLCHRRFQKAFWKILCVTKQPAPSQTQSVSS
Sequence of Delta-type opioid receptor (Homo sapiens) (P41143 whole entry): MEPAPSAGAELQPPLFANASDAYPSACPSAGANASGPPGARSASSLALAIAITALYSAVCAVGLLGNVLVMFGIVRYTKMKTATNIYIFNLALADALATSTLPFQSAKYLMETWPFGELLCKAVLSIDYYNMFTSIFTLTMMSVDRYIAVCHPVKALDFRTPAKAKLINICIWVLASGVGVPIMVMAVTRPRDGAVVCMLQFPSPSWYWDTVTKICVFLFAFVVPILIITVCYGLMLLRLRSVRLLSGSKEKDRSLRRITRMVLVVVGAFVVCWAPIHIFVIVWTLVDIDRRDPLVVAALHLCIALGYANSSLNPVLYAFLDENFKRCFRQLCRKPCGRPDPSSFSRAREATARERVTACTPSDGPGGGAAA
Sequence of Cannabinoid receptor 2 (Homo sapiens) (P34972 whole entry): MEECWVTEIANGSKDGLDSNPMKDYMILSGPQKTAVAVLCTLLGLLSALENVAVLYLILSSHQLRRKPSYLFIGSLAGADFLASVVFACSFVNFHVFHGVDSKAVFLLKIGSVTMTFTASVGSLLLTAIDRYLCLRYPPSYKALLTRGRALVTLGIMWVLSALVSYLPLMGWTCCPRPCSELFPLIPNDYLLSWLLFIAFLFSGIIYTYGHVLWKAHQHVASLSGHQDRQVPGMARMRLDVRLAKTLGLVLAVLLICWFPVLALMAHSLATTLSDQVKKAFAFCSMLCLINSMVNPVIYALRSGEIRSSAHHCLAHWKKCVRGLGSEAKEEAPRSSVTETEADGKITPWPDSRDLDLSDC
Sequence of Cannabinoid receptor 1 (Homo sapiens) (P21554 whole entry): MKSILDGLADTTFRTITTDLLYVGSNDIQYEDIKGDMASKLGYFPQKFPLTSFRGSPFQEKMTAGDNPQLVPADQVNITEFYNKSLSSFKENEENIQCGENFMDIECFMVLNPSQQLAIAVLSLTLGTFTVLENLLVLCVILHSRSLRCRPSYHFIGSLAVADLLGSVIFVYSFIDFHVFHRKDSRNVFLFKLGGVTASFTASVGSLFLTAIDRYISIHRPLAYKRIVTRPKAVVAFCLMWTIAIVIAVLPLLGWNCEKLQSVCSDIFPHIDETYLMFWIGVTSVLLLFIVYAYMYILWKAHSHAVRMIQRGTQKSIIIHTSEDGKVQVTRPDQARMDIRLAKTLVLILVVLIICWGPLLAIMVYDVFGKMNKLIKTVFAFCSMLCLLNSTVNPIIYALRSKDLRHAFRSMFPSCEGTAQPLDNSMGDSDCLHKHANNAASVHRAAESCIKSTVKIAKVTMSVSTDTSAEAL
Sequence of Prostaglandin G/H synthase 1 (Homo sapiens) (P23219 whole entry): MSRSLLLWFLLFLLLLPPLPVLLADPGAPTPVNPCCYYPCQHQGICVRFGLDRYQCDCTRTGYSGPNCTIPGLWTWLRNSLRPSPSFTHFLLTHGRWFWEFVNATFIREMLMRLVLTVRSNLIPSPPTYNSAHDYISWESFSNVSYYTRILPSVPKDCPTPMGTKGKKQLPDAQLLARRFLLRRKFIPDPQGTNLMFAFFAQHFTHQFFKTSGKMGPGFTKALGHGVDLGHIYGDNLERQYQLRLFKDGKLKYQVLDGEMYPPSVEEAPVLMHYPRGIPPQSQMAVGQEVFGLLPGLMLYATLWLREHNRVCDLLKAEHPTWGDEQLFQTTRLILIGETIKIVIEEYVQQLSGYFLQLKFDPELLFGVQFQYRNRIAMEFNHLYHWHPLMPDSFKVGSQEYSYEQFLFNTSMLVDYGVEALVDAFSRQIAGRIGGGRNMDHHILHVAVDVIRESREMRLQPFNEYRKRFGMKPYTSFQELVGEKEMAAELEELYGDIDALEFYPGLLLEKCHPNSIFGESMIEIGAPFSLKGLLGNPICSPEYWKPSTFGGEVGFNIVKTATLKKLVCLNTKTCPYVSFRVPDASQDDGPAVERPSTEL
Sequence of Mu-type opioid receptor (Homo sapiens) (P35372 whole entry): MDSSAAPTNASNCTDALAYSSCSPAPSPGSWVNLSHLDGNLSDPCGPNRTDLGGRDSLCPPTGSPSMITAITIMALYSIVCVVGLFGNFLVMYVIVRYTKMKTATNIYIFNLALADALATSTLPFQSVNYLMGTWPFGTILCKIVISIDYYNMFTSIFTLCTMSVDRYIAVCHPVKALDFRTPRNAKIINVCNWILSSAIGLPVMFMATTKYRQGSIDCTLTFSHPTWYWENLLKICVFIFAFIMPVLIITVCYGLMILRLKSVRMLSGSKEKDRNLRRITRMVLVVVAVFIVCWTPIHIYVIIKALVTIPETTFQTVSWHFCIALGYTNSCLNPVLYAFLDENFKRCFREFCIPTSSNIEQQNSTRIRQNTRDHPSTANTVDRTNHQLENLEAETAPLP
Sequence of Kappa-type opioid receptor (Homo sapiens) (P41145 whole entry): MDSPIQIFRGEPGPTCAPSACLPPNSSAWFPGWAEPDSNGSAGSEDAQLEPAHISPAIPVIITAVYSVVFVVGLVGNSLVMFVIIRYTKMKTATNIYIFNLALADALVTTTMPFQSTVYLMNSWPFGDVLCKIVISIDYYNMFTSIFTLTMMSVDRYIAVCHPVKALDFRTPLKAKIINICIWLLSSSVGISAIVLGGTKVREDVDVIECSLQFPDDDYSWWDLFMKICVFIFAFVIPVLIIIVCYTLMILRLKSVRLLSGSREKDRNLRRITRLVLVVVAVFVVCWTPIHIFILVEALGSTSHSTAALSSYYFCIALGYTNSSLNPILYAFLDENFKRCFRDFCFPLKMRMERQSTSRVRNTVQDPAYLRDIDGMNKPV

Row | Structure (SMILES) | EC50 (Histamine H4 receptor [1]) [nM] | EC50 (Histamine H4 receptor [2]) [nM] | Ki (Histamine H4 receptor [3]) [nM] | Activity (BMMC) | Stability (Liver microsomes [11]) [pmol/min/mg] | Stability (Liver microsomes [12]) [pmol/min/mg] | Stability [13] [pmol/min/mg] | fraction unbound [14] | fraction unbound [15] | Activity (Cytochrome P450 3A4) | Activity (Cytochrome P450 2D6) | Activity (Cytochrome P450 2C9) | half-life [20] [min] | Vd [22] [L/kg] | bioavailability [23] [%] | pKb (Histamine H4 receptor [30]) | Cmax [32] [nM] | Tmax [33] [min] | AUC(0-t) [34] [µM·h] | AUC(0-inf) [35] [µM·h] | further results
1 | Nc1nc2c(c(N3CC[C@@H](N)C3)n1)CCCc1ccccc1-2 | 10 | 5.75 | 3.8 | Active | 19 | 13 | 32.9 | 0.45 | 0.52 | Not Active | Not Active | Not Active | 96 | 131 | 90 | 8.24 | – | – | – | – | Activity [4]: inactive; Activity [5]: inactive; Activity [6]: inactive; Activity [7]: inactive; Activity [8]: inactive; Activity [9]: inactive; Activity [10]: inactive; half-life [16]: 156 min; clearance [17]: 323 mL/min/kg; Vd [18]: 72.9 L/kg; bioavailability [19]: 34%; CL (Mus musculus [21]): 1190 mL/min/kg; Kp at 0.5 h [24]: 2.2; ED50 (Mus musculus [25]): 34 µmol/kg; ED50 (Mus musculus [26]): 33 µmol/kg; ED50 (Rattus norvegicus [27]): 72 µmol/kg; Efficacy (Rattus norvegicus [28]): 68%; Efficacy (Rattus norvegicus [29]): 47%
2 | O=C(c1cc2cc(Cl)ccc2[nH]1)N1CCNCC1 | 30.9 | 17.8 | 3.98 | – | 61.4 | 26.6 | 31.6 | 0.35 | 0.42 | Not Active | Not Active | Not Active | 97.8 | – | – | 7.74 | 1120 | 30 | 3.03 | 3.04 | Ki (Histamine H4 receptor [31]): 25.7 nM; Activity (Mus musculus [36]): Not Active; Cmax [37]: 2000 nM; Tmax [38]: 120 min; half-life [39]: 51.6 min; AUC(0-t) [40]: 11.8 µM·h; AUC(0-inf) [41]: 11.8 µM·h; bioavailability [42]: 0%
3 | CN1CCN(C(=O)c2cc3cc(Cl)ccc3[nH]2)CC1 [JNJ-7777120] | – | – | – | Active | 179 | 19 | 143 | 0.28 | 0.23 | Not Active | Not Active | Not Active | 22.8 | 11 | 24.1 | – | 2220 | 6 | 0.9 | 0.9 | clearance [43]: 334 mL/min/kg; Cmax [37]: 500 nM; Tmax [38]: 30 min; half-life [39]: 58.2 min; AUC(0-t) [40]: 2.79 µM·h; AUC(0-inf) [41]: 2.79 µM·h; bioavailability [42]: 77.6%; ED50 (Rattus norvegicus [44]): 217 µmol/kg
